Test results from patent publication US10092546B2, “Imidazole derivatives” (Hoffman-La Roche Inc., priority 2015, dated 2018).

Columns and labels:
human EAAT3 = target: T1, human EAAT3 (Homo sapiens, UniProt P43005); experiment: FLIPR Membrane Potential (FMP) assay, antagonist potency at human EAAT3; format: cell-based; details: HEK-293 cells stably expressing human EAAT3; L-glutamate as agonist at EC80; antagonist applied 15 min before; Kb by Cheng-Prusoff from IC50
T1 construct: expressed in transfected cells
T1 sequence (P43005 1-524): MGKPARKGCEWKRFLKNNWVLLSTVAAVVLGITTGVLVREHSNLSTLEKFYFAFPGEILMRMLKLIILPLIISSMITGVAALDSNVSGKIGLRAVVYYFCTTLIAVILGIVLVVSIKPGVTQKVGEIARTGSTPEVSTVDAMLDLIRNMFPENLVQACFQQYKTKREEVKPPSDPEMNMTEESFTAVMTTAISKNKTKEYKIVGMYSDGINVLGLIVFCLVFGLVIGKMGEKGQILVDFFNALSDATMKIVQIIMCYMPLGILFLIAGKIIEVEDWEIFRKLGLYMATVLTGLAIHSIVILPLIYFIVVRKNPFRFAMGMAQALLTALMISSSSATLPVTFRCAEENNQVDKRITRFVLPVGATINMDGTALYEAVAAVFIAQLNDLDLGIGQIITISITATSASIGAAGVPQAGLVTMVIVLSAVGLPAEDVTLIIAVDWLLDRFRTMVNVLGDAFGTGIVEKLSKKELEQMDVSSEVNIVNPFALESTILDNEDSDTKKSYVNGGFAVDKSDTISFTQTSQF
Description: The FLIPR Membrane Potential (FMP) Assay
HEK-293 cells stably expressing human EAAT3 were seeded at 55 000 cells/well in growth medium (DMEM glutamate free (Invitrogen 11960-044), 1% Pen Strep (10 ml/l GIBCO BRL No 15140-023), 10% FCS non dialysed heat inactivated, 5 mg/l puromycin) in poly-D-lysine treated 96-well black microtiter plates with clear-bottom. After 24 h, the growth medium was removed and 100 μl/well of Krebs buffer (140 mM NaCl, 4.7 mM KCl, 2.5 mM CaCl2, 1.2 mM MgCl2, 11 mM HEPES, 10 mM D-glucose, pH=7.4) added. The cells were then loaded by adding 100 μl/well FMP assay dye (FLIPR Membrane Potential assay reagent, Molecular Devices). The 96-well plates were then incubated at 37° C. for 1 h. The depolarization of the cells will cause more dye to enter in the cells, where it will bind to intracellular proteins and lipids and cause an increase in the fluorescence signal. Antagonist potency at human EAAT3 was determined by using L-glutamate as agonist at a concentration which gives 80% of the maximum response. The antagonists were applied 15 min before the application of the agonist L-glutamate. The assays were performed at room temperature and measurements done by using a Fluorometric Imaging Plate Reader (FLIPR, Molecular Devices) and filter #2. Responses were measured as peak increase in fluorescence minus basal (i.e. fluorescence without addition of L-glutamate). Kb was determined using the Cheng-Prusoff equation Kb=IC50/[1+(A/EC50)], where IC50 is the concentration of the antagonist producing 50% inhibition, A is the concentration of the agonist against which the IC50 is being determined (at EC80) and EC50 is the concentration of the agonist producing 50% […].

Structure (SMILES)	melting point [°C]	Kb (human EAAT3) [nM]
CC(C)(C)NC(=O)c1cc(-c2ccc(F)cc2)nc(-n2ccnc2CO)c1 [Example 14, N-tert-Butyl-2-(4-fluorophenyl)-6-[2-(hydroxymethyl)-imidazol-1-yl]-pyridine-4-carboxamide]	212	370
CC(C)(C)c1nccn1-c1cc(C(=O)NC(C)(C)C(F)(F)F)cc(-c2ccc(Cl)cc2)n1 [Example 25, 2-(2-tert-Butylimidazol-1-yl)-6-(4-chlorophenyl)-N-(1,1,1-trifluoro-2-methylpropan-2-yl)-pyridine-4-carboxamide]	225	260
COc1ccc(-c2cc(C(=O)NC(C)(C)C)cc(-n3ccnc3C(C)(C)C)n2)cc1 [Example 31, N-tert-Butyl-2-(2-tert-butyl-imidazol-1-yl)-6-(4-methoxy-phenyl)-pyridine-4-carboxamide]	235	240
CC(C)(C)NC(=O)c1cc(-c2ccc(C#N)cc2)nc(-n2ccnc2C(C)(C)C)c1 [Example 32, N-tert-Butyl-2-(2-tert-butyl-imidazol-1-yl)-6-(4-cyano-phenyl)-pyridine-4-carboxamide]	245	290

Continued, values first:

melting point [°C]	Kb (human EAAT3) [nM]	Structure (SMILES)
199	110	CC(C)c1nccn1-c1cc(C(=O)NC(C)(C)C)cc(-c2ccc(F)cc2)n1 [Example 2, N-tert-Butyl-2-(4-fluorophenyl)-6-(2-propan-2-yl-imidazol-1-yl)-pyridine-4-carboxamide]
244	370	CC(C)(C)NC(=O)c1cc(-c2ccc(F)c(F)c2)nc(-n2ccnc2C(C)(C)C)c1 [Example 26, N-tert-Butyl-2-(2-tert-butyl-imidazol-1-yl)-6-(3,4-difluorophenyl)-pyridine-4-carboxamide]
232	110	Cc1ccc(-c2cc(C(=O)NC(C)(C)C)cc(-n3ccnc3C(C)(C)C)n2)cc1 [Example 27, N-tert-Butyl-2-(2-tert-butyl-imidazol-1-yl)-6-(4-methylphenyl)-pyridine-4-carboxamide]
226	670	CC(C)(C)NC(=O)c1cc(-c2ccc(C3CC3)cc2)nc(-n2ccnc2C(C)(C)C)c1 [Example 28, N-tert-Butyl-2-(2-tert-butyl-imidazol-1-yl)-6-(4-cyclopropyl-phenyl)-pyridine-4-carboxamide]
	69	CCC(C)(C)NC(=O)c1cc(-c2ccc(F)cc2)nc(-n2ccnc2C(C)C)c1 [Example 39, 2-(4-Fluorophenyl)-N-(2-methylbutan-2-yl)-6-(2-propan-2-ylimidazol-1-yl)-pyridine-4-carboxamide]
	360	CC(C)c1nccn1-c1cc(C(=O)NC(C)(C)C#N)cc(-c2ccc(Cl)cc2)n1 [Example 40, 2-(4-Chlorophenyl)-N-(2-cyanopropan-2-yl)-6-(2-propan-2-yl-imidazol-1-yl)-pyridine-4-carboxamide]
